For one series, the system named is MCT-injected rats. Description: Rodent model of pulmonary hypertension (monocrotaline). In kind it is in vivo. Particulars: for mean pulmonary arterial pressure (mPAP): 2 weeks; for degree of established PH: started one week after MCT. Here is the method: Animal studies were approved by the administrative panel on animal care at the Univ. Paris-Sud, Le Plessis-Robinson, France. Young male Wistar rats (100 g, Janvier Labs, France) were studied 3 weeks after a single subcutaneous injection of monocrotaline (60 mg/kg) (Sigma-Aldrich, Saint-Quentin Fallavier, France), or vehicle. One week after a single subcutaneous injection of monocrotaline (MCT), rats were randomly divided into several groups and treated for 2 weeks with • (example 3) daily intraperitoneal injections of ISO-1, compound 1 of the invention (M3), M41, or vehicle (vehicle A: 50% (v/v) DMSO (Dimethyl sulfoxide) in normal saline for i.v. administrations) at a dose of 10 mg·kg^−1·day^−1; or • (example 4) daily per os administration of compounds of the invention, or vehicle (vehicle B: 33% DMSO, 45% propylene glycol, 21% saline) at a dose of 30 mg·kg^−1·day^−1.
Animals were anesthetized with isoflurane. A polyvinyl catheter was introduced into the right jugular vein and pushed through the right ventricle into the pulmonary artery. Cardiac output in rat was measured using the thermodilution method. After measurement of hemodynamic parameters, the thorax was opened and the left lung immediately removed and frozen. The right lung was fixed in the distended state with formalin buffer. The right ventricular hypertrophy (RVH) index and the percentage of muscularized vessels were determined as previously described (Guignabert C 2009 J Faseb 23 (12): 4135-4147).

A further series addresses T1, recombinant human MIF (Homo sapiens, UniProt P14174).
T1 construct: purchased RayBiotech
T1 sequence (P14174 2-115 limits assumed): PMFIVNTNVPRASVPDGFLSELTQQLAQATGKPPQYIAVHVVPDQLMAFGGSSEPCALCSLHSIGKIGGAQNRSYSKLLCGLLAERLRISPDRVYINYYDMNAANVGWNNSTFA
Description: MIF tautomerase assay using 4-hydroxyphenylpyruvate (4-HPP). The conditions noted are these: for inhibition at 0.001 µM: compounds at 1 nM, substrate 4-HPP, compared to positive control with rhMIF alone. In kind it is biochemical. Here is the method:
Tautomerase activity was assessed using 4-hydroxyphenylpyruvate (4-HPP) as substrate. 4-HPP was dissolved in 50 mM ammonium acetate at pH 6.0, allowed to equilibrate to room temperature and stored at −20° C. 300 ng/mL of recombinant human MIF (rhMIF; RayBiotech, Le Perray en Yvelines, France) and tested compounds were pre-incubated at room temperature for 15 min. Tautomerase activity was assessed at room temperature, by adding 4-HHP to a 96-well plate containing 0.435 M boric acid at pH 6.6 and rhMIF with or without (positive control) tested compounds (1 nM), and by measuring the increase in absorbance at 320 nm over 10-360 s using the 2103 EnVision™ Multilabel Plate Readers (PerkinElmer, Villebon-sur-Yvette, France). Compounds were tested at 1 nM. The assay was replicated 3 to 6 times independently.

The subject of another series is DU-145 cell line. Nature of the series: MTT assay, cell proliferation and survival, DU-145. In kind it is cell-based. Particulars: 24 h, effect significantly superior compared to ISO-1 (p<0.05); for cell survival: 0% FCS, at 100 μM and 50 μM. As for the experimental part:
(§1) P-ECs were isolated and cultured from lung specimens of patients with idiopathic pulmonary arterial hypertension (iPAH) as previously described (Tu et al., Am J Respir Cell Mol Biol. 2012). The isolated P-ECs were strongly positive for acetylated low-density lipoprotein coupled to Alexa 488 (Alexa488-Ac-LDL), von Willebrand factor (vWF), CD31, and for Ulex europaeus agglutinin-1 (UEA-1) and negative for alpha-smooth muscle actin (α-SMA). DU-145 cell lines and iPAH ECs were grown in MCDB131 medium (Fisher, Illkirch Cedex, France) supplemented with 10% fetal calf serum (FCS), penicillin-streptomycin solution, glutamine, HEPES and amphotericine.
(§2) To determine the impact of the compounds of the invention on the proliferation and the survival of DU-145 cell line and iPAH P-ECs, the methyl tetrazolium (MTT) assay was performed. To this aim, cells were plated in a 96-well plate and cultured in MCDB131 medium (Fisher, Illkirch Cedex, France) supplemented with 10% fetal calf serum (FCS) for 24 h. DU-145 and iPAH ECs monolayers were then washed and 50 or 100 μM of tested compounds were added with 0% (for cell survival assessment) or 10% (for cell proliferation assessment) of FCS for 24 h. Then, cells were incubated with 5 mg/mL of MTT for 6 h of incubation. At the end of the incubation time, medium was removed, dimethylsulfoxide (DMSO) was added in each well and absorbance was recorded at 590 nm using the microplate spectrophotometer system EnVision (PerkinElmer, Waltam, USA).
On the technique in general: Tetrazolium assays rely on reduction of a dye to a coloured formazan, in cell work by metabolically active cells.

The test system of series [1] is iPAH P-ECs (human pulmonary endothelial cells). Description: MTT assay, cell proliferation and survival, iPAH P-ECs. In kind it is cell-based. The conditions noted are these: iPAH EC, 24 h, effect significantly superior compared to ISO-1 (p<0.05); for cell survival: 0% FCS, at 100 μM and 50 μM. Here is the method: as §1, §2
Where [2] appears, read: 10 mg/kg daily intraperitoneal, compared to MCT-injected rats treated with vehicle A.
The mark [3] stands for this setting: daily intraperitoneal 10 mg/kg/day for 2 weeks, day 21.
Where [4] appears, read: 30 mg/kg oral daily, compared to MCT-injected rats treated with vehicle B, p<0.05.
Where [5] appears, read: oral daily 30 mg/kg/day for 2 weeks.

This note sets out measurements from patent US10071080B2, “MIF inhibitors for the acute or chronic treatment of pulmonary hypertension” (MIFCARE, priority 2014, dated 2018).

The term inhibition denotes the relative decrease from the control value, in per cent. Turning to `Cc1ccc2oc(=S)n(Cc3cccc(O)c3)c2c1` [Compound 1, 3-(3-hydroxybenzyl)-5-methylbenzo[d]oxazole-2(3H)-thione], the “mean pulmonary arterial pressure (mPAP)” value with MCT-injected rats (setting [2]) is recorded as “substantial reduction in values of mPAP”. Further, the “degree of established PH” value with MCT-injected rats (setting [3]) is recorded as “substantially attenuates the degree of established PH”. Also, the “mPAP, compared to MCT-injected rats treated with ISO-1” value in the series on MCT-injected rats (same dose, 10 mg/kg, p=0.0855) is given as “higher beneficial effects in mPAP”. In addition, at recombinant human MIF (compound 1 compared to benzoxazol-2-one analogue M41, compounds of the invention compared to ISO-1), the “inhibitory effect against the MIF tautomerase activity (in words)” value is listed as “good inhibitory effect”. For the same compound, the inhibition at 0.001 µM at recombinant human MIF was determined as 41%.
As to `COc1ccccc1Cn1c(=S)oc2ccc(C)cc21` [Compound 2, 3-(2-methoxybenzyl)-5-methylbenzo[d]oxazole-2(3H)-thione], the inhibition at 0.001 µM at recombinant human MIF worked out at 36%.
On the same count and under the same terms, for `Cc1ccc2oc(=S)n(Cc3ccccc3)c2c1` [Compound 3, 3-benzyl-5-methylbenzo[d]oxazole-2(3H)-thione] the value was 35%.
For the compound `Cc1ccc2oc(=S)n(Cc3ccc(F)c(O)c3)c2c1` [Compound 4, 3-(4-fluoro-3-hydroxybenzyl)-5-methylbenzo[d]oxazole-2(3H)-thione], the cell survival result (in the series with DU-145 cell line; in series [1]) was “decrease significantly cell survival” throughout. In addition, in the series with MCT-injected rats (setting [4]), the “mean pulmonary arterial pressure (mPAP)” value is “substantial reduction”. The “degree of established PH” value with MCT-injected rats (setting [5]) is given as “substantially attenuates the degree of established PH”. Moreover, at recombinant human MIF, the inhibition at 0.001 µM amounted to 39%.
In the case of `Oc1cc(Cn2c(=S)oc3ccc(C(F)(F)F)cc32)ccc1F` [Compound 5, 3-(4-fluoro-3-hydroxybenzyl)-5-(trifluoromethyl)benzo[d]oxazole-2(3H)-thione], the cell survival result (with DU-145 cell line; in series [1]) was “decrease significantly cell survival” in each case. For the same compound, the cell proliferation entry was “inhibit significantly cell proliferation” in the series on DU-145 cell line (10% FCS, 50 or 100 μM) and “inhibit significantly cell proliferation” in series [1] (10% FCS, 50 or 100 μM). In the series with MCT-injected rats (setting [4]), the “mean pulmonary arterial pressure (mPAP)” value was “substantial reduction”. Also, the “degree of established PH, compared with treatment by sildenafil” value in the series on MCT-injected rats (compound 5 at 30 mg/kg oral daily for 2 weeks, sildenafil at 100 mg/kg) is on record as “substantially attenuates the degree of established PH”. The “degree of established PH” value in the series on MCT-injected rats (setting [5]) is listed as “substantially attenuates the degree of established PH”. Besides, the inhibition at 0.001 µM on recombinant human MIF was determined as 43%.
Regarding `Cc1ccc2oc(=O)n(Cc3cccc(O)c3)c2c1` [Compound M41, reference compound], the mortality rate in the series with MCT-injected rats (MCT-injected rats, 10 mg/kg/day intraperitoneal) is 5/6. In addition, the “degree of established PH” value in the series on MCT-injected rats (setting [3]) is “substantially attenuates the degree of established PH”. The inhibition at 0.001 µM on recombinant human MIF was determined as 29%.
For the compound `COC(=O)CC1CC(c2ccc(O)cc2)=NO1` (stereo not shown) [ISO-1, reference compound], the “mean pulmonary arterial pressure (mPAP)” value in the series with MCT-injected rats (setting [2]) was “substantial reduction in values of mPAP”. Moreover, on recombinant human MIF, the inhibition at 0.001 µM worked out at 21%.
